This is an account of results in ChEMBL document CHEMBL1201862, “PubChem BioAssay data set” (2004).

Some test systems named below: BT-549; CAKI-1; COLO 205; HCT-116; HT-29; K562; MCF7; MDA-MB-435; MDA-N; OVCAR-3; OVCAR-8; SN12C; SW-620; UACC-62; HL-60; NCI-H23.
Assay in all cases: growth of human tumour cells (NCI), 48 h

Molecules are shown by their SMILES.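 Interpolation was linear, between the two tested concentrations surrounding the appropriate level; five concentrations were tested over 48 hours in 96-well plates. GI50: concentration for 50% inhibition of growth.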 Activity calls are given as the source filed them. No stated cut-off is given here; in the data, active = GI50 up to about 1.1 µM and inactive = higher.

As to `C[N+]12C=CC=C1C(N1CCCC1)c1scc(-c3ccccc3)c12` (centres undefined), the GI50 in the assay on BT-549 is 4.25 µM (inactive); with CAKI-1, > 100 µM (inactive); with COLO 205 it was 15.1 µM (inactive); in the assay on HCT-116, 32.3 µM (inactive); in the assay with HT-29, 8.65 µM (inactive); in the assay on K562 it was 6 µM (inactive). Besides, the GI50 in the assay with MCF7 is 14.8 µM (inactive); in the assay with MDA-MB-435, 36.2 µM (inactive); in the assay with MDA-N, 18.8 µM (inactive); in the assay with OVCAR-3, 7.83 µM (inactive); in the assay on OVCAR-8, 22.5 µM (inactive); in the assay with SN12C, 5.26 µM (inactive). Also, the GI50 in the assay on SW-620 is 93.3 µM (inactive); in the assay on UACC-62 it was 21 µM (inactive).
As for `O=C(c1ccccc1)N1CCC(Nc2nccs2)O1` (centres undefined), the GI50 with BT-549, in the assay on CAKI-1, in the assay with COLO 205, in the assay with HCT-116, with HL-60 and in the assay with HT-29 was > 10 µM (inactive) throughout. Further, the GI50 in the assay on K562, in the assay on MCF7, in the assay on MDA-MB-435, in the assay on NCI-H23, in the assay on OVCAR-3 and in the assay with OVCAR-8 was > 10 µM (inactive) each time. Moreover, the GI50 with SN12C and in the assay with SW-620 was > 10 µM (inactive) each time.
For the compound `COC(=O)c1sc2nc(Nc3ccccc3)/c(=N\c3ccccc3)sc2c1C`, the GI50 is 58.6 µM (inactive) in the assay with CAKI-1; > 100 µM (inactive) in the assay with COLO 205; 51.8 µM (inactive) in the assay on HCT-116; > 100 µM (inactive) in the assay on HL-60; > 100 µM (inactive) in the assay with HT-29; > 100 µM (inactive) in the assay with K562. For the same compound, the GI50 in the assay with MDA-MB-435 is > 100 µM (inactive); with MDA-N, 66.8 µM (inactive); with NCI-H23 it was 94.4 µM (inactive); in the assay with OVCAR-8, 64.1 µM (inactive); with SN12C, 92.9 µM (inactive); in the assay with SW-620, > 100 µM (inactive). Also, in the assay on UACC-62, the GI50 is 35.6 µM (inactive).
`CC(=O)O[C@H]1[C@@H](OC2CCCC2(c2ccccc2)c2ccccc2)O[N+]([O-])=C[C@@]12COCc1cc3c(cc12)OCO3` (some centres undefined): the GI50 is 23 µM (inactive) with BT-549; 4.32 µM (inactive) with CAKI-1; > 32.4 µM (inactive) with COLO 205; > 21.2 µM (inactive) with HCT-116; 3.24 µM (inactive) in the assay with HL-60; 2.77 µM (inactive) in the assay on HT-29. Moreover, the GI50 is 2.92 µM (inactive) with K562; 6.38 µM (inactive) in the assay with MCF7; 3.66 µM (inactive) in the assay with MDA-MB-435; 13.2 µM (inactive) with NCI-H23; 1.89 µM (inactive) in the assay on OVCAR-3; 4.24 µM (inactive) with OVCAR-8. Also, the GI50 in the assay with SN12C was 3.78 µM (inactive); in the assay with SW-620 it was 7.03 µM (inactive); in the assay with UACC-62, 8.39 µM (inactive).
Regarding `CC(C)(C)OC(=O)NCCCCCCC(=O)Cc1ccccc1`, the GI50 with BT-549 is > 100 µM (inactive); in the assay with CAKI-1, > 100 µM (inactive); in the assay on COLO 205 it was 75.2 µM (inactive); in the assay on HCT-116, 84.3 µM (inactive); with HT-29, > 100 µM (inactive); with K562 it was > 100 µM (inactive). Besides, the GI50 in the assay with MCF7, in the assay on MDA-MB-435, in the assay with MDA-N, with NCI-H23, in the assay with OVCAR-3 and in the assay on OVCAR-8 was > 100 µM (inactive) throughout. Further, the GI50 with SN12C and with SW-620 was > 100 µM (inactive) throughout.
`COC(=O)CN1C(=O)C2(C(=O)OC)OC1(c1ccc([N+](=O)[O-])cc1)C1C(=O)N(c3ccccc3)C(=O)C12` (centres undefined): the GI50 in the assay on BT-549, in the assay on CAKI-1, with COLO 205, with HCT-116, in the assay with HL-60 and in the assay on HT-29 was > 100 µM (inactive) in each case. Besides, the GI50 in the assay with MDA-MB-435, with MDA-N, in the assay on NCI-H23, in the assay with OVCAR-8, with SN12C and in the assay on SW-620 was > 100 µM (inactive) in each case. For the same compound, the GI50 in the assay on UACC-62 is > 100 µM (inactive).
Turning to `CCN1CCC(O)(c2ccc(Oc3ccc(F)cc3)cc2)C(C(=O)c2ccc(Oc3ccc(F)cc3)cc2)C1` (centres undefined), the GI50 in the assay on BT-549 was 15.7 µM (inactive); in the assay with CAKI-1, 13 µM (inactive); with COLO 205, 16.6 µM (inactive); in the assay with HCT-116 it was 13.6 µM (inactive); in the assay on HT-29, 10.6 µM (inactive); in the assay on K562 it was 12.7 µM (inactive). Moreover, the GI50 with MCF7 was 11.5 µM (inactive); with MDA-MB-435 it was 16.8 µM (inactive); in the assay on MDA-N, 16.9 µM (inactive); in the assay with NCI-H23 it was 14.8 µM (inactive); in the assay with OVCAR-3, 15.2 µM (inactive); with OVCAR-8, 15 µM (inactive). The GI50 with SN12C was 14.2 µM (inactive); in the assay with SW-620 it was 15.6 µM (inactive); in the assay on UACC-62, 14.8 µM (inactive).
As for `CN1CCN(c2ncc3c(n2)sc2c(=O)n(-c4ccccc4)cnc23)CC1`, the GI50 with BT-549, in the assay on CAKI-1, in the assay on COLO 205, in the assay on HCT-116, in the assay on HT-29 and in the assay with K562 was > 100 µM (inactive) in each case. Besides, the GI50 with MDA-MB-435, in the assay on MDA-N, in the assay on NCI-H23, in the assay on OVCAR-3, in the assay with OVCAR-8 and in the assay with SN12C was > 100 µM (inactive) each time. The GI50 in the assay on SW-620 and in the assay on UACC-62 was > 100 µM (inactive) throughout.
On to `O=C1/C(=C/c2ccc(Cl)cc2)NC(=S)N1CN1CCCCC1`, for which the GI50 is 28 µM (inactive) with COLO 205; 34.4 µM (inactive) with HCT-116; 15.8 µM (inactive) with HT-29; 34 µM (inactive) with K562; 29.2 µM (inactive) in the assay on MCF7; 45.5 µM (inactive) in the assay with MDA-MB-435. Further, the GI50 in the assay on MDA-N was 63 µM (inactive); in the assay on NCI-H23, 37.2 µM (inactive); in the assay on OVCAR-3 it was 36.7 µM (inactive); with OVCAR-8 it was 36.7 µM (inactive); in the assay on SN12C it was 40.6 µM (inactive); in the assay on SW-620, 20.7 µM (inactive). In addition, in the assay on UACC-62, the GI50 is 13.1 µM (inactive).
For `CCOC(=O)C(CC#Cc1ccc(C#CCC(NC(C)=O)C(=O)OCC)cc1)NC(C)=O` (centres undefined), the GI50 with CAKI-1, with COLO 205, in the assay on HCT-116, in the assay on HL-60, with HT-29 and in the assay with K562 was > 100 µM (inactive) each time. Further, the GI50 in the assay on MCF7, in the assay on MDA-MB-435, with MDA-N, in the assay on NCI-H23, in the assay on OVCAR-3 and with OVCAR-8 was > 100 µM (inactive) throughout. The GI50 with SN12C, with SW-620 and in the assay on UACC-62 was > 100 µM (inactive) each time.
Consider `Cc1ccc(O)c(C(c2cc(C)ccc2O)c2cc([N+](=O)[O-])ccc2O)c1`, for which the GI50 is 12.2 µM (inactive) in the assay with CAKI-1; 17.8 µM (inactive) in the assay with COLO 205; 24.6 µM (inactive) in the assay on HCT-116; 3.42 µM (inactive) with HL-60; 15 µM (inactive) in the assay with HT-29; 23.1 µM (inactive) with K562. The GI50 was 14.5 µM (inactive) in the assay with MCF7; 15 µM (inactive) with MDA-MB-435; 12.4 µM (inactive) in the assay on NCI-H23; 12.4 µM (inactive) with OVCAR-3; 3.66 µM (inactive) in the assay with OVCAR-8; 14.7 µM (inactive) in the assay on SN12C. Also, the GI50 with SW-620 was 24.3 µM (inactive); in the assay with UACC-62, 15.9 µM (inactive).
In the case of `Fc1ccc2c3c([nH]c2c1)CCNC3`, the GI50 with COLO 205, in the assay on HCT-116, in the assay on HL-60, with HT-29, with K562 and in the assay on MCF7 was > 100 µM (inactive) throughout. The GI50 in the assay with MDA-MB-435 is 77.1 µM (inactive); with NCI-H23, > 100 µM (inactive); in the assay on OVCAR-8, > 100 µM (inactive); with SN12C, > 100 µM (inactive); in the assay on SW-620 it was > 100 µM (inactive); in the assay with UACC-62, > 100 µM (inactive).
As to `CC1=NN(c2nc(N)nc(CSc3nc4n(c(=S)n3)CCN4)n2)C(C)(C)C1`, the GI50 in the assay on BT-549 is > 100 µM (inactive); in the assay on CAKI-1 it was 25.2 µM (inactive); in the assay with COLO 205, 38.5 µM (inactive); in the assay on HCT-116, > 100 µM (inactive); in the assay with HL-60 it was > 100 µM (inactive); in the assay with HT-29 it was > 100 µM (inactive). The GI50 is > 100 µM (inactive) with K562; 51.5 µM (inactive) in the assay with MCF7; > 100 µM (inactive) with MDA-MB-435; 47.5 µM (inactive) in the assay with NCI-H23; 18.3 µM (inactive) with OVCAR-8; > 100 µM (inactive) in the assay on SW-620. In the assay with UACC-62, the GI50 is 43.1 µM (inactive).
Regarding `COc1ccc(C2C3=C(COC3=O)Oc3cc4c(cc32)OCO4)cc1OC` (centres undefined), the GI50 with CAKI-1 was 2.82 µM (inactive); in the assay on COLO 205, 0.879 µM (active); in the assay on HCT-116, 0.465 µM (active); with HL-60 it was 0.208 µM (active); in the assay on HT-29, 0.395 µM (active); in the assay with K562, 0.337 µM (active). For the same compound, the GI50 was 0.408 µM (active) with MCF7; 0.123 µM (active) in the assay on MDA-MB-435; 0.135 µM (active) in the assay with MDA-N; 3.94 µM (inactive) in the assay with NCI-H23; 1.38 µM (inactive) in the assay with OVCAR-3; 4.05 µM (inactive) in the assay with OVCAR-8. Also, the results for the GI50 with SN12C, in the assay with SW-620 and in the assay with UACC-62 were 5.26 µM (inactive), 0.492 µM (active) and 0.859 µM (active), respectively.
